From patent US20260001928A1 (CORTERIA PHARMACEUTICALS, priority 2022, published 2026)
pEC50: −log10 of the molar value. *1 amine or outer side, *2 acyl side, *3 side chain or, on linkers, in order; H or OH if unused. Where a SMILES comes first, the peptide text is derived from it. Side-chain parts run from the residue outwards. [ ]: non-standard residue; d: D form. The star is where a group is joined. C20 diacid = O=C(O)CCCCCCCCCCCCCCCCCCC(=O)*; C18 diacid = O=C(O)CCCCCCCCCCCCCCCCC(=O)*; γGlu = O=C(O)[C@H](CCC(=O)[*:2])N[*:1]; C12 diacid = O=C(O)CCCCCCCCCCC(=O)*; Api = NC1(C(=O)O)CCNCC1; Pentanoyl = CCCCC(=O)*; AEEA = NCCOCCOCC(=O)O; Aib = CC(C)(N)C(=O)O

Experiments:
human CRF2a receptor = target: T1, human CRF2a receptor (Homo sapiens, UniProt Q13324); test: Activity at human CRF2a receptor, cAMP functional assay in TeloHEAC cells; type: cell-based; conditions: TeloHEAC cells stably expressing human CRF2a receptor, relative to urocortin 2 (100 nM = 100%)
T1 construct: expressed in transfected cells; host or cells: TeloHEAC cells
T1 sequence (Q13324 1-411): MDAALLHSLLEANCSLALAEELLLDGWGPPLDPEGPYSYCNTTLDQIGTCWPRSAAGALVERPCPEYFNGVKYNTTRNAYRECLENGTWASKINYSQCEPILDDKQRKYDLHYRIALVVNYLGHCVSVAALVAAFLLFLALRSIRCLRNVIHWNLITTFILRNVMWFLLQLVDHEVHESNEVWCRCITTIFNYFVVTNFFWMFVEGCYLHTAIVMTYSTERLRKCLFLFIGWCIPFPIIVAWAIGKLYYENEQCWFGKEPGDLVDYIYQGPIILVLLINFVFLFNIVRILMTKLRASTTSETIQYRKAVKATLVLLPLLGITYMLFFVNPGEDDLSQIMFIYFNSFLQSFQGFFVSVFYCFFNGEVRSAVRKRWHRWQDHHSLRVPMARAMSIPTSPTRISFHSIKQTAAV
Summary of the method: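 cAMP accumulation was measured by HTRF 665/620 nm ratio after 30 min at 37° C compound exposure (16 twofold dilutions) of CRF2a-expressing TeloHEAC cells, 10000/well, in HEPES-buffered HBSS plus IBMX. Activity was normalised to urocortin 2 at 100 nM (100%), and EC50 was the concentration giving half-maximal activation.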

CFR1R receptor = target: T2, CFR1R receptor (Homo sapiens, UniProt P34998); test: Activity at anti-target CFR1R receptor, cAMP assay in CRF1R-overexpression CHO-K1 cells; type: cell-based; conditions: 100% = Sauvagine at 100 nM; for pEC50: cAMP
T2 construct: host or cells: CHO-K1 (clone 2)
T2 sequence (P34998 24-415): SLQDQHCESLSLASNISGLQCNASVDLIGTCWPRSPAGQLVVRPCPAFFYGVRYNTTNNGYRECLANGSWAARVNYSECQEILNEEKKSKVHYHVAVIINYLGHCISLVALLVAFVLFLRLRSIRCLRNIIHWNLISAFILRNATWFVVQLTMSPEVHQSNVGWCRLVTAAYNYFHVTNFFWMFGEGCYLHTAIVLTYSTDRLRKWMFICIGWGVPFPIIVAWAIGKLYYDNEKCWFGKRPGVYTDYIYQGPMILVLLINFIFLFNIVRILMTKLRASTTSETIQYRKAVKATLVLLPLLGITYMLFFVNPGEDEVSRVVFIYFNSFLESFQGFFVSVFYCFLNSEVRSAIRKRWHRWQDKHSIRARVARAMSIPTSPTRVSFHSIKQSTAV
Summary of the method: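 Run as for the TeloHAEC line, except the full-activation control well received Sauvagine (100 nM) and final density was 4000 cells/well. Cells from clone 2 came from frozen aliquots of near-confluent cultures.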

Row | Compound | pEC50 (human CRF2a receptor) | Emax (% I) (CFR1R receptor) | pEC50 (CFR1R receptor)
1 | CC[C@H](C)[C@H](NC(C)=O)C(=O)N[C@H](C(=O)N[C@@H](CC(C)C)C(=O)N[C@@H](CO)C(=O)N[C@@H](CC(C)C)C(=O)N[C@@H](CC(=O)O)C(=O)N[C@@H](C(=O)N1CCC[C@H]1C(=O)N[C@H](C(=O)N[C@@H](CCCCN)C(=O)N[C@@H](CC(C)C)C(=O)N[C@@H](CCCCNC(=O)COCCOCCNC(=O)COCCOCCNC(=O)CC[C@H](NC(=O)CCCCCCCCCCCCCCCCC(=O)O)C(=O)O)C(=O)N[C@@H](CCCCN)C(=O)N[C@H](C(=O)N[C@@H](CC(C)C)C(=O)N[C@@H](CC(C)C)C(=O)N[C@@H](CCC(=O)O)C(=O)N[C@@H](CCC(N)=O)C(=O)N[C@@H](CCC(=O)O)C(=O)N[C@@H](CCCCN)C(=O)N[C@@H](CCC(N)=O)C(=O)N[C@@H](CCCCN)C(=O)N[C@@H](CCCCN)C(=O)N[C@@H](CCC(N)=O)C(=O)N[C@@H](CCCNC(=N)N)C(=O)N[C@@H](CCC(=O)O)C(=O)N[C@@H](CCC(N)=O)C(=O)N[C@@H](C)C(=O)N[C@@H](CCC(=O)O)C(=O)N[C@H](C(=O)N[C@@H](CC(N)=O)C(=O)N[C@@H](CCC(=O)O)C(=O)N[C@@H](CCC(N)=O)C(=O)N[C@H](C(=O)N[C@@H](CC(C)C)C(=O)N[C@@H](C)C(=O)N[C@@H](CCC(N)=O)C(=O)N[C@H](C(N)=O)C(C)C)[C@@H](C)CC)[C@@H](C)O)[C@@H](C)CC)[C@@H](C)CC)C(C)C)C(C)C [compound 108] (Ac-IVLSLD[dV]PIKLK([AEEA-AEEA-γGlu-C18 diacid])KILLEQEKQKKQREQAETNEQILAQV-NH2) | 8.94 | 4 % I | < 6.60
2 | CC[C@H](C)[C@H](NC(C)=O)C(=O)N[C@H](C(=O)N[C@@H](CC(C)C)C(=O)N[C@@H](CO)C(=O)N[C@@H](CC(C)C)C(=O)N[C@@H](CC(=O)O)C(=O)N[C@@H](C(=O)N1CCC[C@H]1C(=O)N[C@H](C(=O)NCC(=O)N[C@@H](CC(C)C)C(=O)N[C@@H](CCCCNC(=O)CC[C@H](NC(=O)CCCCCCCCCCCCCCCCC(=O)O)C(=O)O)C(=O)N[C@@H](CCCCN)C(=O)N[C@H](C(=O)N[C@@H](CC(C)C)C(=O)N[C@@H](CC(C)C)C(=O)N[C@@H](CCC(=O)O)C(=O)N[C@@H](CCC(N)=O)C(=O)N[C@@H](CCC(=O)O)C(=O)N[C@@H](CCCCN)C(=O)N[C@@H](CCC(N)=O)C(=O)N[C@@H](CCCCN)C(=O)N[C@@H](CCCCN)C(=O)N[C@@H](CCC(N)=O)C(=O)N[C@@H](CCCNC(=N)N)C(=O)N[C@@H](CCC(=O)O)C(=O)N[C@@H](CCC(N)=O)C(=O)N[C@@H](C)C(=O)N[C@@H](CCC(=O)O)C(=O)N[C@H](C(=O)N[C@@H](CC(N)=O)C(=O)NC(C)(C)C(=O)N[C@@H](CCC(N)=O)C(=O)N[C@H](C(=O)N[C@@H](CC(C)C)C(=O)N[C@@H](C)C(=O)N[C@@H](CCC(N)=O)C(=O)N[C@H](C(N)=O)C(C)C)[C@@H](C)CC)[C@@H](C)O)[C@@H](C)CC)[C@@H](C)CC)C(C)C)C(C)C [compound 191] (Ac-IVLSLD[dV]PIGLK([γGlu-C18 diacid])KILLEQEKQKKQREQAETN[Aib]QILAQV-NH2) | 9.74 | 54 % I | 
3 | CCCCC(=O)N[C@H](C(=O)N[C@@H](CC(C)C)C(=O)N[C@@H](CO)C(=O)N[C@@H](CC(C)C)C(=O)N[C@@H](CC(=O)O)C(=O)N[C@@H](C(=O)N1CCC[C@H]1C(=O)N[C@H](C(=O)N[C@@H](CCCCN)C(=O)N[C@@H](CC(C)C)C(=O)N[C@@H](CCCCNC(=O)CC[C@H](NC(=O)CCCCCCCCCCC(=O)O)C(=O)O)C(=O)N[C@@H](CCCCN)C(=O)N[C@H](C(=O)N[C@@H](CC(C)C)C(=O)N[C@@H](CC(C)C)C(=O)N[C@@H](CCC(=O)O)C(=O)N[C@@H](CCC(N)=O)C(=O)N[C@@H](CCC(=O)O)C(=O)N[C@@H](CCCCN)C(=O)N[C@@H](CCC(N)=O)C(=O)N[C@@H](CCCCN)C(=O)N[C@@H](CCCCN)C(=O)N[C@@H](CCC(N)=O)C(=O)N[C@@H](CCCNC(=N)N)C(=O)N[C@@H](CCC(=O)O)C(=O)N[C@@H](CCC(N)=O)C(=O)N[C@@H](C)C(=O)N[C@@H](CCC(=O)O)C(=O)N[C@H](C(=O)N[C@@H](CC(N)=O)C(=O)NC(C)(C)C(=O)N[C@@H](CCC(N)=O)C(=O)N[C@H](C(=O)N[C@@H](CC(C)C)C(=O)N[C@@H](C)C(=O)N[C@@H](CCC(N)=O)C(=O)N[C@H](C(N)=O)C(C)C)[C@@H](C)CC)[C@@H](C)O)[C@@H](C)CC)[C@@H](C)CC)C(C)C)C(C)C [compound 185] (Pentanoyl-VLSLD[dV]PIKLK([γGlu-C12 diacid])KILLEQEKQKKQREQAETN[Aib]QILAQV-NH2) | 8.45 | 2 % I | < 6.60
4 | CC[C@H](C)[C@H](NC(C)=O)C(=O)N[C@H](C(=O)N[C@@H](CC(C)C)C(=O)N[C@@H](CO)C(=O)N[C@@H](CC(C)C)C(=O)N[C@@H](CC(=O)O)C(=O)N[C@@H](C(=O)N1CCC[C@H]1C(=O)N[C@H](C(=O)N[C@@H](CCCCN)C(=O)N[C@@H](CC(C)C)C(=O)N[C@@H](CCCCNC(=O)COCCOCCNC(=O)COCCOCCNC(=O)CC[C@H](NC(=O)CCCCCCCCCCCCCCCCCCC(=O)O)C(=O)O)C(=O)N[C@@H](CCCCN)C(=O)N[C@H](C(=O)N[C@@H](CC(C)C)C(=O)N[C@@H](CC(C)C)C(=O)N[C@@H](CCC(=O)O)C(=O)N[C@@H](CCC(N)=O)C(=O)N[C@@H](CCC(=O)O)C(=O)N[C@@H](CCCCN)C(=O)N[C@@H](CCC(N)=O)C(=O)N[C@@H](CCCCN)C(=O)N[C@@H](C)C(=O)N[C@@H](CCC(N)=O)C(=O)N[C@@H](CCCNC(=N)N)C(=O)N[C@@H](CCC(=O)O)C(=O)N[C@@H](CCC(N)=O)C(=O)N[C@@H](C)C(=O)N[C@@H](CCC(=O)O)C(=O)N[C@H](C(=O)N[C@@H](CC(N)=O)C(=O)NC(C)(C)C(=O)N[C@@H](CCC(N)=O)C(=O)N[C@H](C(=O)N[C@@H](CC(C)C)C(=O)N[C@@H](C)C(=O)N[C@@H](CCC(N)=O)C(=O)N[C@H](C(N)=O)C(C)C)[C@@H](C)CC)[C@@H](C)O)[C@@H](C)CC)[C@@H](C)CC)C(C)C)C(C)C [compound 240] (Ac-IVLSLD[dV]PIKLK([AEEA-AEEA-γGlu-C20 diacid])KILLEQEKQKAQREQAETN[Aib]QILAQV-NH2) | 9.66 | 4 % I | < 6.60
5 | CC[C@H](C)[C@H](NC(C)=O)C(=O)N[C@H](C(=O)N[C@@H](CC(C)C)C(=O)N[C@@H](CO)C(=O)N[C@@H](CC(C)C)C(=O)N[C@@H](CC(=O)O)C(=O)N[C@@H](C(=O)N1CCC[C@H]1C(=O)N[C@H](C(=O)N[C@@H](CCCCN)C(=O)N[C@@H](CC(C)C)C(=O)N[C@@H](CCCCNC(=O)COCCOCCNC(=O)COCCOCCNC(=O)CC[C@H](NC(=O)CCCCCCCCCCCCCCCCC(=O)O)C(=O)O)C(=O)N[C@@H](CCCCN)C(=O)N[C@H](C(=O)N[C@@H](CC(C)C)C(=O)N[C@@H](CC(C)C)C(=O)N[C@@H](CCC(=O)O)C(=O)N[C@@H](CCC(N)=O)C(=O)N[C@@H](CCC(=O)O)C(=O)N[C@@H](CCCCN)C(=O)N[C@@H](CCC(N)=O)C(=O)N[C@@H](CCCCN)C(=O)NC(C)(C)C(=O)N[C@@H](CCC(N)=O)C(=O)N[C@@H](CCCNC(=N)N)C(=O)N[C@@H](CCC(=O)O)C(=O)N[C@@H](CCC(N)=O)C(=O)N[C@@H](C)C(=O)N[C@@H](CCC(=O)O)C(=O)N[C@H](C(=O)N[C@@H](CC(N)=O)C(=O)NC1(C(=O)N[C@@H](CCC(N)=O)C(=O)N[C@H](C(=O)N[C@@H](CC(C)C)C(=O)N[C@@H](C)C(=O)N[C@@H](CCC(N)=O)C(=O)N[C@H](C(N)=O)C(C)C)[C@@H](C)CC)CCNCC1)[C@@H](C)O)[C@@H](C)CC)[C@@H](C)CC)C(C)C)C(C)C [compound 196] (Ac-IVLSLD[dV]PIKLK([AEEA-AEEA-γGlu-C18 diacid])KILLEQEKQK[Aib]QREQAETN[Api]QILAQV-NH2) | 8.66 | 9 % I | < 6.60
